Measurements taken from ChEMBL document CHEMBL3627608, “Crystal structures of human RIP2 kinase catalytic domain complexed with ATP-competitive inhibitors: Foundations for understanding inhibitor selectivity” (Bioorg Med Chem, 2015).

What was measured:
[1] = molecular target: Calcium/calmodulin-dependent protein kinase type 1 (Homo sapiens) (UniProt Q14012); assay: Inhibition of CAMK1alpha (unknown origin) at 10 uM after 120 mins P33 radiolabeled kinase activity assay
[2] = molecular target: T1, Serine/threonine-protein kinase PLK4 (Homo sapiens) (UniProt O00444); assay: Inhibition of PLK4 (unknown origin) at 10 uM after 120 mins P33 radiolabeled kinase activity assay
T1 sequence (whole entry): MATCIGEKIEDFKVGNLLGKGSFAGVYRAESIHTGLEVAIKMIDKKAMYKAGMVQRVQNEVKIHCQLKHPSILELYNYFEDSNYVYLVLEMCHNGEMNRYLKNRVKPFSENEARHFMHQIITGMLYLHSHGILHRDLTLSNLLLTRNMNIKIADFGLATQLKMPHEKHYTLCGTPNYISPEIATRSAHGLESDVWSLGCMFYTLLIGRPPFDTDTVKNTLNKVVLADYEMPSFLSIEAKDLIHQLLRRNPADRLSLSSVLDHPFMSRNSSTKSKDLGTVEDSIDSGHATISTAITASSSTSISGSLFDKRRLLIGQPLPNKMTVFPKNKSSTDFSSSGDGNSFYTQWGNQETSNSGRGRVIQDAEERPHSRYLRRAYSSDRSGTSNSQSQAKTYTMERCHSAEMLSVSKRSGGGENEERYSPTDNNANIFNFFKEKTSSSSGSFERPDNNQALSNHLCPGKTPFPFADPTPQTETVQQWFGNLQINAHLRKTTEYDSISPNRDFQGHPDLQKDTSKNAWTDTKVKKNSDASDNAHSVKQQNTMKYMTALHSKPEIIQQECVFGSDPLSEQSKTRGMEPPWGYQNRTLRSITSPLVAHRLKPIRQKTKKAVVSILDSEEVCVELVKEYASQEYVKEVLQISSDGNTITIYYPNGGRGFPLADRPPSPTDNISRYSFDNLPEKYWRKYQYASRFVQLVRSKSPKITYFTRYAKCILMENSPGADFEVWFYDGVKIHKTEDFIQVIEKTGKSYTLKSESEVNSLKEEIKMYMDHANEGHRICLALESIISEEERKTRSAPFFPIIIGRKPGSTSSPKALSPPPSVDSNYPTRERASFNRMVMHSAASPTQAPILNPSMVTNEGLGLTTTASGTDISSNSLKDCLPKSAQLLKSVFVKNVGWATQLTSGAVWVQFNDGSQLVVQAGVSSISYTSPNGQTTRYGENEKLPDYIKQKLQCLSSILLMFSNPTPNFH

[3] = molecular target: T2, Serine/threonine-protein kinase TAO1 (Homo sapiens) (UniProt Q7L7X3); assay: Inhibition of TAOK1 (unknown origin) at 10 uM after 120 mins P33 radiolabeled kinase activity assay
T2 sequence (whole entry): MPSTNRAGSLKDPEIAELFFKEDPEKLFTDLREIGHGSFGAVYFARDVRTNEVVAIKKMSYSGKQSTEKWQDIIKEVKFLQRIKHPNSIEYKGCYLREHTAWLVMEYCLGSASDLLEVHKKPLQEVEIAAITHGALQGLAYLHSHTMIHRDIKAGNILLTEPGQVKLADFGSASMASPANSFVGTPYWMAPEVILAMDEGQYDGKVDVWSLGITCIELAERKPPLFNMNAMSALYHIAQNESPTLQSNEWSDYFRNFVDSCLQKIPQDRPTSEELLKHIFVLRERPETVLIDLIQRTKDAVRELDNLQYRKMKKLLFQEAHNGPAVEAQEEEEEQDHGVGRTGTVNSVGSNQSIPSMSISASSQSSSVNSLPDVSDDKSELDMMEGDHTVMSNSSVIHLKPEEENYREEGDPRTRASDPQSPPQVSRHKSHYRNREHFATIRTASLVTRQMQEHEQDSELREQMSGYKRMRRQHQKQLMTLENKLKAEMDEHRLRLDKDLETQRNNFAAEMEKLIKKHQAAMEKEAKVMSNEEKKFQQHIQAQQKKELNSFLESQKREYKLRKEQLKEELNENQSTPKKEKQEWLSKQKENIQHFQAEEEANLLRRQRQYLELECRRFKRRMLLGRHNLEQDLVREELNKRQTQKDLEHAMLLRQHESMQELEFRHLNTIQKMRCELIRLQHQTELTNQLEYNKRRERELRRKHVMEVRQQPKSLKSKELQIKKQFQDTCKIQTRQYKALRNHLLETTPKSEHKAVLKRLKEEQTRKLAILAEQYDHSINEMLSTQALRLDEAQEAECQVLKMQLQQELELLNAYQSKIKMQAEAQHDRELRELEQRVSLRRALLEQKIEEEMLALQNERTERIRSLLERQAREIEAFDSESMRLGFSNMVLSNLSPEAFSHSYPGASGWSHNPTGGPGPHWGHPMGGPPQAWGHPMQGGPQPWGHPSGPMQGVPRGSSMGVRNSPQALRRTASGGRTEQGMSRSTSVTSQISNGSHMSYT

Sequence of Calcium/calmodulin-dependent protein kinase type 1 (Homo sapiens) (Q14012 whole entry, looked up): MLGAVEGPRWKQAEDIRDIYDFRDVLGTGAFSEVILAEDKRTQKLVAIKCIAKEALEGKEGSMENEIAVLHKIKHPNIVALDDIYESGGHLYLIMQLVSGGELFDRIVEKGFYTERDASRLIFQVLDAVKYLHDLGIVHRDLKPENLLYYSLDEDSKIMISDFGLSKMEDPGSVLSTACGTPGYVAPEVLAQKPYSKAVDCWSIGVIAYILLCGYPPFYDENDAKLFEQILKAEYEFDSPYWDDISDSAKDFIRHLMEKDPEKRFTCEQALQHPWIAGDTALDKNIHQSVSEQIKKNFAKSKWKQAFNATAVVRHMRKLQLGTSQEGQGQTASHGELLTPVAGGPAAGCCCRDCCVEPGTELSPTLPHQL

SMILES	inhibition [1] [%]	inhibition [2] [%]	inhibition [3] [%]
COCCNC(=O)c1ccc2c(c1)nc(-c1cnc(-c3ccc(Cl)cc3)[nH]1)n2CCOC	2.42	17.3	1.85
CS(=O)(=O)c1cccc(Nc2nccc(-c3sc(N4CCOCC4)nc3-c3cccc(NS(=O)(=O)c4c(F)cccc4F)c3)n2)c1	96.3	97	43.6
CC(C)(C)c1cc(NC(=O)Nc2ccc(Oc3ccncc3)cc2)no1	15	19.3	90.4
